These results are taken from US20080027113A1, “Methods of Using and Compositions Comprising Immunomodulatory Compounds for Treatment and Management of Macular Degeneration” (priority 2003, published 2008).

For test [1], the system named is patients with macular degeneration. The test can be described thus: Clinical study in patients with macular degeneration, adjuvant to photodynamic therapy with verteporfin. The note with it: about 10 mg/day for 20 weeks as adjuvant to verteporfin photodynamic therapy. Format: in vivo, human. As to the method: Immunomodulatory compounds are administered in an amount of about 0.1 to about 25 mg per day to patients with macular degeneration. In a specific embodiment, clinical studies are performed with forty patients with macular degeneration, who are divided into two groups. The first group receives conventional treatment for closing the leaking choroidal vessels (characteristic of this disease) by photodynamic therapy with verteporfin. Ophthalmol 1999 (117): 1329-1345.
Progressive visual loss follows which requires the photodynamic therapy to be repeated.

The subject of another test is IL1β production. The test can be described thus: LPS-stimulated production of IL1β by PBMC. As to conditions: result in words.
The subject of a further test is IL10 production. The test can be described thus: Production of anti-inflammatory cytokine IL10 by PBMC. Format: cell-based. As to conditions: result in words.
Test [2] relates to TNF-α production. The test is described as follows: Inhibition of TNF-α production following LPS-stimulation of human whole blood. Format: cell-based. The note with it: LPS-stimulated, read-out: IC50 for inhibiting production of TNF-α following LPS-stimulation of human whole blood.
In test [3] the test system is TNF-α production. The test is described as follows: Inhibition of TNF-α production following LPS-stimulation of human PBMC. Format: cell-based. As to conditions: for inhibition of LPS-stimulated production of TNF-α by PBMC: result in words; for IC50: human PBMC, LPS-stimulated, read-out: IC50 for inhibiting production of TNF-α following LPS-stimulation of PBMC.
In another test the test system is IL6 production. The test is described as follows: LPS-stimulated production of IL6 by PBMC. Format: cell-based. The note with it: result in words.

Turning to `Nc1cccc2c1CN(C1CCC(=O)NC1=O)C2=O` (stereo not shown), the “effect on neovascular cascade / duration of photodynamic therapy effect” value in test [1] is “sufficiently hindered”. Besides, in the test on IL1β production, the “inhibition of LPS-stimulated production of IL1β by PBMC” value is given as “dose-dependent inhibition”. Besides, in the test with IL10 production, the “production of the anti-inflammatory cytokine IL10” value was “increased production”. Besides, the IC50 in the test with TNF-α production [2] was ~480 nM; in the test with TNF-α production [3], ~100 nM. Moreover, the “inhibition of LPS-stimulated production of TNF-α by PBMC” value in the test with TNF-α production [3] is “dose-dependent inhibition”. Moreover, in the test with IL6 production, the “inhibition of LPS-stimulated production of IL6 by PBMC” value is on record as “dose-dependent inhibition”.
Consider `Nc1cccc2c1C(=O)N(C1CCC(=O)NC1=O)C2=O` (stereo not shown), for which the “inhibition of LPS-stimulated production of IL1β by PBMC” value in the test on IL1β production is listed as “dose-dependent inhibition”. Also, the “production of the anti-inflammatory cytokine IL10” value with IL10 production is listed as “increased production”. The IC50 in the test on TNF-α production [2] was ~25 nM. Besides, in the test on TNF-α production [3], the “inhibition of LPS-stimulated production of TNF-α by PBMC” value is given as “dose-dependent inhibition” and the IC50 is ~24 nM. In addition, the “inhibition of LPS-stimulated production of IL6 by PBMC” value in the test on IL6 production is reported as “dose-dependent inhibition”.
